The values below come from ChEMBL document CHEMBL1149474, “Synthesis and receptor binding properties of chimeric peptides containing a mu-opioid receptor ligand and nociceptin/orphanin FQ receptor ligand Ac-RYYRIK-amide” (Bioorg Med Chem Lett, 2006).

Non-standard residues stand in square brackets, D forms with d. Residues, ends and D or L forms follow the SMILES beside them. βAla = NCCC(=O)O

The target in one experiment is Mu-type opioid receptor (Rattus norvegicus, UniProt P33535). As to the kind of experiment: Displacement of [3H]DAMGO from mu opioid receptor in rat brain homogenate. Type of experiment: tissue-based.
Chain of Mu-type opioid receptor (P33535 whole entry): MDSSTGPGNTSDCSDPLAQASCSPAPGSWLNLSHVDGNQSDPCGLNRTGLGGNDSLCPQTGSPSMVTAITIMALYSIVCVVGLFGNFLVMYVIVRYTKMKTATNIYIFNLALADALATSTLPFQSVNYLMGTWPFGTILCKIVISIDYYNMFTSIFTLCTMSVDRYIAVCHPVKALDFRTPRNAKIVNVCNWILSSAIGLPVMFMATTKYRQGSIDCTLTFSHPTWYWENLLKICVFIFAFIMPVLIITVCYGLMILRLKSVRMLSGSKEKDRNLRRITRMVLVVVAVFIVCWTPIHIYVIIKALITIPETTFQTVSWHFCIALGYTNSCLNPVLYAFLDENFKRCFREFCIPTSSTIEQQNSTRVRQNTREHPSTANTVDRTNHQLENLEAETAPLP
The next experiment addresses Nociceptin receptor (Homo sapiens, UniProt P41146). As to the kind of experiment: Displacement of [3H]NOC from human ORL1 receptor expressed in HEK293 cells. The class given is cell-based.

Chain of Nociceptin receptor (P41146 whole entry): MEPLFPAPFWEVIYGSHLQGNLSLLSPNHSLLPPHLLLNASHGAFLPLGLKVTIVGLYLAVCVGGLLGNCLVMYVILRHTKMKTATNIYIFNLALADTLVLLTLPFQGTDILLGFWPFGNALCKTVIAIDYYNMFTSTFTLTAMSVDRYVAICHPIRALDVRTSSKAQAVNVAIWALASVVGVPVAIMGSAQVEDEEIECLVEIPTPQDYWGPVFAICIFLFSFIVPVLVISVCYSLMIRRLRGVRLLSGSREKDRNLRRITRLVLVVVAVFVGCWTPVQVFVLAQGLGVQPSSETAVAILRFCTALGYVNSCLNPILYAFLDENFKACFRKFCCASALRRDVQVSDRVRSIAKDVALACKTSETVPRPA

Turning to `CC[C@H](C)[C@H](NC(=O)[C@H](CCCN=C(N)N)NC(=O)[C@H](Cc1ccc(O)cc1)NC(=O)[C@H](Cc1ccc(O)cc1)NC(=O)[C@H](CCCN=C(N)N)NC(C)=O)C(=O)N[C@@H](CCCCN)C(=O)N[C@@H](CCCCNC(=O)CCNC(=O)[C@H](Cc1ccccc1)NC(=O)[C@@H](CCCN=C(N)N)NC(=O)[C@@H](N)Cc1ccc(O)cc1)C(N)=O`, the IC50 on Mu-type opioid receptor was 2.76 nM; at Nociceptin receptor it was 0.789 nM. For `CC[C@H](C)[C@H](NC(=O)[C@H](CCCN=C(N)N)NC(=O)[C@H](Cc1ccc(O)cc1)NC(=O)[C@H](Cc1ccc(O)cc1)NC(=O)[C@H](CCCN=C(N)N)NC(C)=O)C(=O)N[C@@H](CCCCN)C(=O)NCC(=O)NCC(=O)NCC(=O)N[C@@H](CCCCNC(=O)CNC(=O)CNC(=O)CNC(=O)CNC(=O)CNC(=O)CCNC(=O)[C@H](Cc1ccccc1)NC(=O)[C@@H](CCCN=C(N)N)NC(=O)[C@@H](N)Cc1ccc(O)cc1)C(N)=O` the same measures were 0.0477 nM and 0.0803 nM.

Regarding `C[C@@H](NC(=O)[C@@H](N)Cc1ccc(O)cc1)C(=O)N[C@@H](Cc1ccccc1)C(=O)NCC(=O)N[C@@H](Cc1ccc(O)cc1)C(=O)N1CCC[C@H]1C(=O)N[C@@H](CO)C(N)=O` [DERMORPHIN], the IC50 was 0.538 nM at Mu-type opioid receptor and more than 10000 nM on Nociceptin receptor.

In the case of `CC[C@H](C)[C@H](NC(=O)[C@H](CCCN=C(N)N)NC(=O)[C@H](Cc1ccc(O)cc1)NC(=O)[C@H](Cc1ccc(O)cc1)NC(=O)[C@H](CCCN=C(N)N)NC(C)=O)C(=O)N[C@@H](CCCCN)C(=O)N[C@@H](CCCCNC(=O)[C@H](CO)NC(=O)[C@@H]1CCCN1C(=O)[C@H](Cc1ccc(O)cc1)NC(=O)CNC(=O)[C@H](Cc1ccccc1)NC(=O)[C@@H](C)NC(=O)[C@@H](N)Cc1ccc(O)cc1)C(N)=O`, the half-maximal inhibitory concentration (IC50) at Nociceptin receptor came to 11.6 nM. Turning to `CC[C@H](C)[C@H](NC(=O)[C@H](CCCN=C(N)N)NC(=O)[C@H](Cc1ccc(O)cc1)NC(=O)[C@H](Cc1ccc(O)cc1)NC(=O)[C@H](CCCN=C(N)N)NC(C)=O)C(=O)N[C@@H](CCCCN)C(N)=O`, on Mu-type opioid receptor, the IC50 was more than 10000 nM. Consider `N=C(N)NCCC[C@@H](NC(=O)[C@@H](N)Cc1ccc(O)cc1)C(=O)N[C@@H](Cc1ccccc1)C(=O)NCCC(N)=O` (H-Y[dR]F[βAla]-NH2), for which the IC50 was 1.18 nM at Mu-type opioid receptor and more than 10000 nM on Nociceptin receptor. For `CC[C@H](C)[C@H](NC(=O)[C@H](CCCN=C(N)N)NC(=O)[C@H](Cc1ccc(O)cc1)NC(=O)[C@H](Cc1ccc(O)cc1)NC(=O)[C@H](CCCN=C(N)N)NC(C)=O)C(=O)N[C@@H](CCCCN)C(=O)NCC(=O)NCC(=O)NCC(=O)N[C@@H](CCCCNC(=O)CNC(=O)CNC(=O)[C@H](CO)NC(=O)[C@@H]1CCCN1C(=O)[C@H](Cc1ccc(O)cc1)NC(=O)CNC(=O)[C@H](Cc1ccccc1)NC(=O)[C@@H](C)NC(=O)[C@@H](N)Cc1ccc(O)cc1)C(N)=O` the same measures were 0.00236 nM and 0.0464 nM.

As a reminder, the IC50 is the concentration needed to halve the response being measured. A low value points to greater potency.
